Measured values: EP1257552B1, “XANTHINE DERIVATIVES, INTERMEDIATES AND USE FOR TREATING OSTEOPOROSIS” (Aventis Pharma S.A., priority 2000, dated 2001)

Experiments:
Assay type in all cases: in vivo
[1] = test system: UTERUS; experiment: Uterus weight in the ovariectomised rat osteopenia model; conditions: 4 weeks, weight increase in % of uterus weight of OVX animals receiving solvent only
Protocol: (§1) L'impact osseux de ces dérivés xanthine a été évalué sur un modèle d'ostéopénie, la rate ovariectomisée à l'âge de 3 mois, afin de déterminer ses effets sur la masse osseuse, et sur l'activité de formation et de résorption osseuse. Les animaux sont traités en préventif.
(§2) Sur ce modèle d'ostéopénie l'effet de ces dérivés xanthine est comparé à celui de la PTH • Produit à tester : composé de l'exemple 1 • véhicule(s) : méthylcellulose 0,5 % ou sérum physiologique • dose(s) : 10 mg/kg pour le produit. la PTH est administrée à la dose de 10 µg ou 25 µg/kg/j par voie sous cutanée • nombre d'administrations : une fois/jour; 5 jours/semaine pendant 4 semaines • voie d'administration : voie orale pour le produit. La PTH est administrée par voie sous cutanée • volume : 1 ml/kg p o et s c • délai entre l'injection et le sacrifice : 24 heures • nombre d'administrations : 20
(§3) Des rats femelles âgées de 3 mois et pesant environ 250-300 g sont ovariectomisées sous anesthésie à l'Imalgène 1000, à la dose de 100 mg/kg par voie intrapéritonéale (i.p) et sous un volume de 1 ml/kg. Ils reçoivent également du Nembutal (3 mg/kg i.p. sous un volume de 0,3 ml/kg). Les animaux sont répartis en groupes de 8 rats. Après incision latérale, les plans cutanés et musculaires sont sectionnés. L'exérèse de chaque ovaire se fait après ligature de l'oviducte. Les rats "SHAM" sont anesthésiés dans les mêmes conditions. Après incision des plans cutanés et musculaires, chaque ovaire est exposé puis replacé in situ.
(§4) Les effets des produits sont déterminés après un traitement préventif. Les traitements débutent 24 heures après ovariectomie. Les animaux sont traités pendant 4 semaines, et se répartissent de la façon suivante : • un groupe témoin Sham recevant le ou les véhicules • un groupe témoin OVX recevant le ou les véhicules • OVX + dérivé xanthine • OVX + PTH
Les utérus sont prélevés. Ces derniers sont pesés. L'augmentation du poids est exprimée, en % du poids de l'utérus des animaux ovariectomisés ne recevant que le solvant. • au niveau osseux : […]

[2] = test system: Cholestérol; experiment: Serum cholesterol level in the ovariectomised rat osteopenia model; conditions: 4 weeks, decrease of serum cholesterol in % versus OVX animals receiving solvent only
Protocol: as §1, §2, §3, §4
Au terme des 4 semaines de traitement, les animaux sont décapités par guillotine. Les sérums recueillis après centrifugation sont conservés à -20°C. […]

[3] = test system: OS TIBIA; experiment: Bone mineral density (DEXA) of the tibia in the ovariectomised rat osteopenia model, preventive treatment; conditions: once daily, 5 days/week for 4 weeks, (BMD treated - BMD OVX)/(BMD SHAM - BMD OVX) x 100
Protocol: as §1, §2, §3, §4
La masse osseuse (BMD ou Bone Mineral Density = densité minérale osseuse) est mesurée par absorptiométrie biphotonique à rayons X à double énergie (DEXA). Les mesures sont réalisées sur les os excisés et débarrassés de tous les tissus mous. […]

Compound | UTERUS Poids % ([1]; 10 µg/kg sc) | UTERUS Poids % ([1]; 25 µg/kg sc) | Cholestérol % ([2]; 10 µg/kg sc) | Cholestérol % ([2]; 25 µg/kg sc) | OS TIBIA Densité % ([3]; 10 µg/kg sc) | OS TIBIA Densité % ([3]; 25 µg/kg sc) | UTERUS Poids % ([1]; 10 mg/kg po) | Cholestérol % ([2]; 10 mg/kg po) | OS TIBIA Densité % ([3]; 10 mg/kg po)
PTH | Pas d'effet | 9% | Pas d'effet | Pas d'effet | 69% | 100% | – | – | –
O=c1c2[nH]cnc2n(-c2ccccc2)c(=O)n1Cc1ccncc1 [ex 1, chlorhydratede 3,7-dihydro-3-phényl-1-(4-pyridinylméthyl)-1H-purine-2,6-dione] | – | – | – | – | – | – | 15% | Pas d'effet | 60%
